Experimental data taken from US11111238B2, “Coumarin derivatives, processes for their preparation and uses thereof for the treatment of cancer” (Lead Discovery Center GmbH, priority 2017, dated 2021).

Assays:
[1] = system: mitochondrial transcription (7S RNA) in HeLa cells; test: Quantitative real time-PCR assay of inhibition of mitochondrial transcription (cellular qPCR assay IMT); type: cell-based; conditions: Homo sapiens, 4 h compound incubation, qRT-PCR according to Example 5, activity class
Outline: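 HeLa cells were exposed 4 h to compound dilution series or DMSO. Mitochondrial 7S RNA, with POLRMT for nuclear transcription, was measured by TaqMan qRT-PCR, normalised to TBP. Biological triplicates were analysed by ΔΔCt and expressed as Rq % (2^-ΔΔCt).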

[2] = system: CA-46 (lymphoma); test: CellTiter GLO viability assay, CA-46; type: cell-based; conditions: Homo sapiens, CA46, 144 h, read-out: IC50 (μM) incubation time 144 h
Protocol: (§1) The CellTiter-Glo Luminescent Cell Viability Assay (Promega) is a homogeneous method of determining the number of viable cells in culture. It is based on quantification of ATP, indicating the presence of metabolically active cells.
[…] After incubation for 3 h in humidified chambers at 37° C./5% CO2 compounds/DMSO were added at different concentrations. […] Cells treated with the compound vehicle DMSO were used as positive controls and cells treated with 10 μM Staurosporine served as negative controls. […] Thereon, mixture and assay plates were equilibrated at room temperature for 20 min. Equal volumes of the reagent-medium-mixture was added to the volume of culture medium present in each well.
(§2) The plates were mixed at ˜200 rpm for 2 minutes on an orbital shaker. The microplates were then incubated at room temperature for 10 minutes for stabilization of the luminescent signal. Following incubation the luminescence is recorded on a Victor microplate reader (Perkin Elmer) using 200 ms integration time. The data were then analyzed with Excel using the XLFIT Plugin (dose response Fit 205) for IC50-determination. As quality control the Z′-factor was calculated from 16 positive and negative control values. Only assay results showing a Z′-factor≥0.5 were used for further analysis.

[3] = system: HEC-59 (endometrial); test: CellTiter GLO viability assay, HEC-59; type: cell-based; conditions: 144 h, read-out: IC50 (μM) incubation time 144 h
Protocol: as §1
(§3) Cells were seeded on day 1 at cell numbers that assure assay linearity and optimal signal intensity. After incubation for 3 h in humidified chambers at 37° C./5% CO2 compounds/DMSO were added at different concentrations. […] Cells treated with the compound vehicle DMSO were used as positive controls and cells treated with 10 μM Staurosporine served as negative controls. […] Thereon, mixture and assay plates were equilibrated at room temperature for 20 min. Equal volumes of the reagent-medium-mixture was added to the volume of culture medium present in each well.
as §2

[4] = system: NCI-H1299 (lung); test: CellTiter GLO viability assay, NCI-H1299; type: cell-based; conditions: Homo sapiens, 144 h, read-out: IC50 (μM) incubation time 144 h
Protocol: as §1, §3, §2

[5] = system: SW948 (colon); test: CellTiter GLO viability assay, SW948; type: cell-based; conditions: Homo sapiens, 144 h, read-out: IC50 (μM) incubation time 144 h
Protocol: as §1, §3, §2

[6] = system: human DLD-1 colon carcinoma xenograft; conditions: mouse, in vivo
Protocol: (§4) DLD-1 colon carcinoma cells (5×10^6 cells in 100 μL of PBS/Matrigel), isolated during exponential growth phase from in vitro cell culture, were transplanted s.c. into each female BALB/c nude mouse at day 0. Mice were kept under strictly controlled and standardized barrier conditions in IVC.
(§5) Sorafenib) (Nexavar®, which is an approved multi-kinase inhibitor/cytostatic from Bayer A G, was used as a positive control. Body weight and tumor volume (TV) were monitored two to three times per week.
(§6) Mice of groups 3, 4 and 5 were treated again at the end of the study period and blood samples were taken to generate plasma 1 h prior and 1 h post treatment. In addition, tumor and tissue samples were isolated, divided into two parts and snap frozen in liquid nitrogen. Mice of groups 1-5 were sacrificed at day 39. Gross autopsy was performed from all mice.

[7] = system: human DLD-1 colon carcinoma xenograft; test: Therapeutic effect on human DLD-1 colon carcinoma xenograft in nude mice
Protocol: as §4, §5, §6

C[C@@H](Oc1ccc2c(-c3ccc(F)cc3Cl)cc(=O)oc2c1)C(=O)N1CCC[C@H](C(=O)O)C1 [Compound 14, (3S)-1-[(2R)-2-[4-(2-chloro-4-fluoro-phenyl)-2-oxo-chromen-7-yl]oxypropanoyl]piperidine-3-carboxylic acid] was tested, and the IC50 [1] was < 10 nM, the IC50 [2] was ≤ 0.1 µM and the IC50 [3] was > 10 µM. For the same compound, the IC50 [4] was 0.1 to 1 µM, the IC50 [5] was 0.1 to 1 µM and the “Autopsy at the end” value [6] was “no abnormal observations”. The body weight loss [6] was “moderate body weight loss”, the signs of toxicity [6] was “no signs of toxicity were observed” and the Tolerability ([7]; DLD-1 xenograft, p.o. QD × 28 days) was “well tolerated”. The “Therapeutic effect: tumor growth inhibition” value ([7]; all doses) was “dose-dependent tumor growth inhibition” and the “Therapeutic effect: tumor growth inhibition” value ([7]; lowest dose (50 mg/kg)) was “minor effect”.
